The values that follow come from patent US11154544B2, “Amide derivatives as Nav1.7 and Nav1.8 blockers” (RaQualia Pharma Inc., priority 2017, dated 2021).

Several values for one entry are separate records, joined by “and”; a condition that tells them apart may be missing. Equal values may be shown once. Bounds are passed on as bounds.

Nav1.7, sequence (Q15858 whole entry): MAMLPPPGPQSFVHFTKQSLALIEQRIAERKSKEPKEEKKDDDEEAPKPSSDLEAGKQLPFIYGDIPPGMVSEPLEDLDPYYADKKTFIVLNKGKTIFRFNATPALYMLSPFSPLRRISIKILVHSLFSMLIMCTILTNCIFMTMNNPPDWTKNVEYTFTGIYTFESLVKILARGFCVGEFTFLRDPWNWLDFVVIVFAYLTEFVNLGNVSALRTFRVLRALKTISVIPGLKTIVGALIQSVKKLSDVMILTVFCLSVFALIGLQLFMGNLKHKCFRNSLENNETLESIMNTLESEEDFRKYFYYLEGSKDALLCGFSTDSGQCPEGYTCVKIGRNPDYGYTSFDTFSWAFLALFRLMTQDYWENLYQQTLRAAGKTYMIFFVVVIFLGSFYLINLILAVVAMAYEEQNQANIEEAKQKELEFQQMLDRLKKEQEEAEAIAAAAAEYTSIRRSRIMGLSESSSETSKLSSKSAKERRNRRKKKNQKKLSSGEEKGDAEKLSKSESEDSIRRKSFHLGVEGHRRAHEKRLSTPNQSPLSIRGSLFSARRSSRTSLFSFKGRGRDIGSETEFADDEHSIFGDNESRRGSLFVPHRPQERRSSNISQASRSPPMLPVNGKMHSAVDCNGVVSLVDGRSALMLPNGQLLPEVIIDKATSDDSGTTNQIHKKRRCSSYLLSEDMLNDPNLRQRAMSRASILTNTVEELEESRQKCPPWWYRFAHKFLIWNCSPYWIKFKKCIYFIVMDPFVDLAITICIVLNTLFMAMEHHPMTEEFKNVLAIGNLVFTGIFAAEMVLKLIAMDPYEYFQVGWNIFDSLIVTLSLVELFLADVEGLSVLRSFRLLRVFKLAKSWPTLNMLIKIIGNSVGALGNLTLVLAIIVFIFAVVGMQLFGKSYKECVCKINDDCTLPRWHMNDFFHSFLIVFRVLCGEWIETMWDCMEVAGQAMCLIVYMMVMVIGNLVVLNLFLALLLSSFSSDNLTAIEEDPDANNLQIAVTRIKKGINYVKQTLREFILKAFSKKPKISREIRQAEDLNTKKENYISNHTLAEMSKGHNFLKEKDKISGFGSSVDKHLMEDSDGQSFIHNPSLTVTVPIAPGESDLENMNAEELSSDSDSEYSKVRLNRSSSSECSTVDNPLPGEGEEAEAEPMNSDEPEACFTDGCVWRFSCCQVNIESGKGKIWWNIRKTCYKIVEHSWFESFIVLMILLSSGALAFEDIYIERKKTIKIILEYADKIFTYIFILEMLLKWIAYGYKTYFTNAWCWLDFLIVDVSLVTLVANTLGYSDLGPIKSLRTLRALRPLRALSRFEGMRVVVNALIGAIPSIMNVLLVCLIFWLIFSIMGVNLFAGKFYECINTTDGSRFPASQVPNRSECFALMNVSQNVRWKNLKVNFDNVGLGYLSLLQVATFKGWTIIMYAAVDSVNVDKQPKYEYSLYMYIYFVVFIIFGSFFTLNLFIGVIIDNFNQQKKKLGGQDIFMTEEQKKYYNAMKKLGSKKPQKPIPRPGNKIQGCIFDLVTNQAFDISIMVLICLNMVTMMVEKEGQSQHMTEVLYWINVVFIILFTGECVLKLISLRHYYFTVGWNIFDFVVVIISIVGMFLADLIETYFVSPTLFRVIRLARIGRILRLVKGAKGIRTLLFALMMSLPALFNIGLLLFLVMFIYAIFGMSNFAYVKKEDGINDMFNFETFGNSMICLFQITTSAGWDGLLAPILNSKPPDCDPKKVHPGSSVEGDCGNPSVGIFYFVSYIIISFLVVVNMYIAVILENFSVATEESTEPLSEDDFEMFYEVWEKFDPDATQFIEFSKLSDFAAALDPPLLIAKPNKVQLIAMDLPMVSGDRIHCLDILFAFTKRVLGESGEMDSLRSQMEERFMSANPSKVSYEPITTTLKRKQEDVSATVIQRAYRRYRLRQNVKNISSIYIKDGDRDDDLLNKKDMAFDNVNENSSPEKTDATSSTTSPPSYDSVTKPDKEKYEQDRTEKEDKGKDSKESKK
human Nav1.8 channels, sequence (Q9Y5Y9 whole entry): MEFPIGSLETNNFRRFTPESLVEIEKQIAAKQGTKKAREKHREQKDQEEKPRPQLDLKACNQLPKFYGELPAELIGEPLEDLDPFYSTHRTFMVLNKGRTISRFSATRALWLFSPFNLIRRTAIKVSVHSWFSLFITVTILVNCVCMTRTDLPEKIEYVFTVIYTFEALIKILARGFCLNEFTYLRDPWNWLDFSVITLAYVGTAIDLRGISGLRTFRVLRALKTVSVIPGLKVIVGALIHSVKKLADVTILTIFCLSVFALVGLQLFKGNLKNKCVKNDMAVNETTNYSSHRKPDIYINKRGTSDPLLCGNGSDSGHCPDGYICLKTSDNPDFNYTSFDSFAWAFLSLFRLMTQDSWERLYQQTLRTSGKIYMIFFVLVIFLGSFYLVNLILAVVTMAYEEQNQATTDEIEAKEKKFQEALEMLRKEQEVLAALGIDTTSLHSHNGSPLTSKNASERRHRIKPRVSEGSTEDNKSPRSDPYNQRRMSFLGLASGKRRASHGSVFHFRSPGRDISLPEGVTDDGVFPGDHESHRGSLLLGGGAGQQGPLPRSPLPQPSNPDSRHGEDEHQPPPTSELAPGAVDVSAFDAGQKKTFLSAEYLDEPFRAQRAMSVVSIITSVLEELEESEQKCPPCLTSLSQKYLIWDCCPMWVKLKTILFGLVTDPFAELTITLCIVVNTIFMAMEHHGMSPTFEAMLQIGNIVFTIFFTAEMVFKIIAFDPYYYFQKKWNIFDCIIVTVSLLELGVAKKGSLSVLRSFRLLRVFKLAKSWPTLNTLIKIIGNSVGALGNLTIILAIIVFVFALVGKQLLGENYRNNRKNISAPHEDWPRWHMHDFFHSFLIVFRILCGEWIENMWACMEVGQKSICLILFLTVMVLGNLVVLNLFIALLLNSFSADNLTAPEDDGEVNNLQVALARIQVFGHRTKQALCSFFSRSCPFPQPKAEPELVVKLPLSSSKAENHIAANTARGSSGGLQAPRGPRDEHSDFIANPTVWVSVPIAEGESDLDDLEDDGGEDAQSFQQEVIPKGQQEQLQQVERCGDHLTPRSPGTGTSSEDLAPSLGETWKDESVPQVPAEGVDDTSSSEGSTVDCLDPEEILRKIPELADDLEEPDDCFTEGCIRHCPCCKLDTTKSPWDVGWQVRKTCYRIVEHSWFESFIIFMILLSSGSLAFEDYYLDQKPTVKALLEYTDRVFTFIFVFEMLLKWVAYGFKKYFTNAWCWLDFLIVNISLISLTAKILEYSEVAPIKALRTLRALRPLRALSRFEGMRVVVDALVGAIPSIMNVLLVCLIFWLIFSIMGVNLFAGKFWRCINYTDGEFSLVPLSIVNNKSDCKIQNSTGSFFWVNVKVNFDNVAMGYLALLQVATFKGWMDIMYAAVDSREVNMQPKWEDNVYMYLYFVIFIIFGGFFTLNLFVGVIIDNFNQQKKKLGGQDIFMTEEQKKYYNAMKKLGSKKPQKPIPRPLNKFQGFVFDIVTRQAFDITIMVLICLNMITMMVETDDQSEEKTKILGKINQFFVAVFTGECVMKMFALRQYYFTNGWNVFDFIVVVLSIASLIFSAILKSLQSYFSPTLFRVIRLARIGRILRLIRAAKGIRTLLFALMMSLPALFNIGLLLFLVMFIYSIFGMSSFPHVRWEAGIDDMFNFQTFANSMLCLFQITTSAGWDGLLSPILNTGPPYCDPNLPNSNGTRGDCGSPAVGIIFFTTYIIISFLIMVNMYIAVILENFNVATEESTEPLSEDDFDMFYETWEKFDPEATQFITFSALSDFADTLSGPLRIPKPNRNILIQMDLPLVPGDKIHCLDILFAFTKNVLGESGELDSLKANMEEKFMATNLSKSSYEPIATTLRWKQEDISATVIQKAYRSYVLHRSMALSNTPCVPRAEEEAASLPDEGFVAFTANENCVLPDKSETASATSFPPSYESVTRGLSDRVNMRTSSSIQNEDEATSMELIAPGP

The first assay concerns the target human Nav1.8 channels (Homo sapiens (Human), UniProt Q9Y5Y9). In words: FRET assay (FDSS).
Conditions: not given
It counts as cell-based. The method, then: This screen is used to determine the effects of compounds on human Nav1.8, and human Nav1.5 channels, utilizing the cell imaging technology by Hamamatsu Photonics's Functional Drug Screening System (FDSS). The changes of membrane potential are monitored with fluorescent membrane potential dye pair, DiSBAC2(3) and CC2-DMPE, using FRET technology.
HEK293 cells expressing human Nav1.8 channels or human Nav1.5 channels are grown in T225 flasks, in a 5% CO2 humidified incubator to about 80% confluence. Media composition of HEK293 cells expressing human Nav1.8 channels consists of Dulbecco's Modified Eagle Medium (high glucose), 10% fetal calf serum (FCS), 100 units/mL Penicillin, 100 microgram/mL Streptomycin, 200 microgram/mL Zeocin and 500 microgram/mL Geneticine. HEK293 cells expressing human Nav1.5 channels are maintained in Dulbecco's Modified Eagle Medium (high glucose) supplemented with 10% fetal calf serum (FCS), 100 units/mL Penicillin, 100 microgram/mL Streptomycin and 500 microgram/mL Geneticine.
Seed each cell lines (1.5×10^4 cells/well) into 384-well plates prior to experimentation.
Incubate at 37° C. in 5% CO2 for 24 hours.
Wash each well with buffer #1 (140 mM NaCl, 4.5 mM KCl, 10 mM D-Glucose, 2 mM CaCl2, 1 mM MgCl2, 10 mM HEPES, pH 7.4 adjusted with. NaOH) twice using plate washer.
Add 1st loading solution containing 7.5 microM CC2-DMPE and 0.06% Pluronic F-127 in buffer #1.
Incubate the plate at rt in dark for 0.5 hours.
Wash each well with buffer #2 (160 mM Choline, 10 mM D-Glucose, 0.1 mM CaCl2, 1 mM MgCl2, 1.0 mM HEPES, pH 7.4 adjusted with KOH) twice using plate washer.
Add 2nd loading solution containing 75 microM DiSBAC2(3), 2.5 mM Xylene Fast Yellow, 10 microM Deltamethrin or 100 microM veratridine and 0.02% Pluronic F-127 in buffer #2.
Add compound solutions into the assay plate and leave the plate for 30 minutes under the dark at rt.
Monitor the fluorescent membrane potentials before and after the addition of buffer #2 by FDSS.
The data is analyzed and reported as normalized ratios of intensities measured in the 465 nm and 575 nm channels. The process of calculating these ratios is performed as follows: FR=(FI465Max/FI575Min)−(FI465B/FI575B) [Math.2]
“FI465B”=the mean of fluorescence intensity as baseline (before Na^+ ligand addition) at 465 nm
“FI575B”=the mean of fluorescence intensity as baseline (before Na^+ ligand addition) at 575 nm
“FI465Max”=maximum fluorescence intensity at 465 nm after Na^+ stimulation
“FI575Min”=minimum fluorescence intensity at 575 nm after Na^+ stimulation
This analysis is performed using a computerized specific program designed for FDSS generated data. Fluorescence ratio values are plotted using XLfit to determine an IC50 value for each compound.
On to `Cc1cc(C(=O)NCCOc2ncc(C(F)(F)F)cc2Cl)cc(NC(=O)C(C)C)n1` [Example 35], for which the “activity against Nav1.8” value is recorded as “good activity”.
Same read-out and setting: the entry for `CC(C)C(=O)Nc1cc(C(=O)NCCOc2ncc(C(F)(F)F)cc2Cl)ccn1` [Example 13] is “good activity”.

The next assay addresses Nav1.7 (Homo sapiens (Human), UniProt Q15858). In words: EFS-FRET assay. It counts as cell-based. The conditions noted are these: EFS-FRET, CHO cells expressing human Nav1.7; read-out: IC50 against Nav1.7. The protocol:
This screen is used to determine the effects of compounds on human Nav1.7 channels, utilizing electrical field stimulation (EFS) system in 96-well plate format on FDSS (Hamamatsu Photonics) platform. The change of membrane potential is monitored with FRET dye pair, DiSBAC2(3) and PTS 18.
CHO (Chinese hamster ovary) cells expressing human Nav1.7 channels are grown in T225 flasks, in a 5% CO2 humidified incubator to about 80% confluence. Media composition consists of HAM/F^.12 with Glutamax I, 10% FCS, 100 units/mL penicillin and 100 microgram/mL hygromycin.
Seed each cell lines (1×10^5 cells/well) into 96-well plates prior to experimentation.
Incubate at 37° C. in 5% CO2, for 24 hours.
Wash each well with assay buffer (140 mM NaCl, […], 10 mM D-Glucose, 2 mM CaCl2, 1 mM MgCl2, 10 mM HEPES, pH 7.4 adjusted with NaOH) twice.
Add 1st loading solution containing 10 microM PTS18 and 0.06% Pluronic F-127 in assay buffer.
Incubate the plate at rt in dark for 1 hour. • Remove 1st loading solution and add 2nd loading solution containing 12.5 microM DiSBAC2(3), 1.25 mM Xylene Fast Yellow and 0.0075% Pluronic F-127 in assay buffer. • Place the plate under the dark at rt for 25 minutes. • Add compound solutions into the assay plate. • Set the assay plate in FDSS and place an EFS device on the plate. • Measure EFS-induced fluorescent response by FDSS.
The data are analyzed and reported as normalized ratios of intensities measured at […]. The process of calculating these ratios is performed as follows:
This analysis is performed using a computerized specific program designed for
FDSS generated data. Fluorescence ratio values are plotted using XLfit to determine an IC50 value for each, compound.
For the compound `Cc1cc(C(=O)NCCOc2ncc(C(F)(F)F)cc2Cl)cc(NC(=O)C(C)C)n1` [Example 35], the IC50 was 190 nM and < 500 nM.
In the case of `CC(C)C(=O)Nc1cc(C(=O)NCCOc2ccnc3cc(C(F)(F)F)ccc23)ccn1` [Example 80], the IC50 was under 500 nM.
On the same count and under the same terms, next, `COc1cc(C(F)(F)F)ccc1OCCNC(=O)c1ccnc(NC(=O)C2CC2)n1` [Example 134]: under 500 nM.
Take `Cc1cc(C(=O)NCCOc2ccc(OC(F)(F)F)cc2Cl)cc(NC(=O)C(C)C)n1` [Example 108]: the IC50 is under 500 nM.
Still for that read-out and setting: the figure for `O=C(NCCNc1ncc(C(F)(F)F)cc1Cl)c1ccnc(NC(=O)C2CC2)n1` [Example 38] is under 500 nM; for `CC(=O)Nc1cc(C(=O)NCCOc2ccc(OC(F)(F)F)cc2Cl)ccn1` [Example 113] it is under 500 nM; for `CC(C)C(=O)Nc1cc(C(=O)NCCOc2ccc(OC(F)(F)F)cc2Cl)ccn1` [Example 107] it is under 500 nM.
The same measure, in the same setting: the figure for `CC(C)C(=O)Nc1cc(C(=O)NCCOc2ncc(C(F)(F)F)cc2Cl)ccn1` [Example 13] is 370 nM and < 500 nM; for `COc1cc(C(F)(F)F)ccc1OCCNC(=O)c1ccnc(NC(C)=O)c1` [Example 126] it is under 500 nM.
On the same count and under the same terms, next, `O=C(NCCNc1ncc(C(F)(F)F)cc1Cl)c1ccnc(NC(=O)C2CC2)c1` [Example 6]: under 500 nM; `CC(=O)Nc1cc(C(=O)NCCSc2ncc(C(F)(F)F)cc2Cl)cc(C)n1` [Example 54]: under 500 nM.
Regarding `CCC(=O)Nc1cc(C(=O)NCCOc2ccc(C(F)(F)F)cc2F)cc(C)n1` [Example 94], the IC50 is under 500 nM.
Take `Cc1cc(C(=O)NCCOc2ccc(C(F)(F)F)cc2C)cc(NC(=O)C(C)C)n1` [Example 145]: the IC50 is under 500 nM.
Same read-out and setting: next, `Cc1cc(C(=O)NCCOc2ncc(C(F)(F)F)cc2Cl)cc(NC(=O)C2CC2)n1` [Example 25]: under 500 nM; `CCC(=O)Nc1cc(C(=O)NCCOc2ccc(C(F)(F)F)cc2Cl)cc(C)n1` [Example 39]: under 500 nM.
On the same count and under the same terms, next, `O=C(NCCOc1ccc(S(F)(F)(F)(F)F)cc1)c1ccnc(NC(=O)C2CC2)c1` [Example 33]: under 500 nM.
Turning to `Cc1cc(C(F)(F)F)ccc1OCCNC(=O)c1ccnc(NC(=O)C2CC2)c1` [Example 142], the IC50 was under 500 nM.
Same read-out and setting: the figure for `C[C@H](COc1ncc(C(F)(F)F)cc1Cl)NC(=O)c1ccnc(NC(=O)C2CC2)c1` [Example 67] is under 500 nM; for `O=C(NCCOc1ncc(C(F)(F)F)cc1Cl)c1ccnc(NC(=O)C2CC2)n1` [Example 36] it is under 500 nM; for `CCC(=O)Nc1cc(C(=O)NCCOc2ccc(C(F)(F)F)cc2OC)ccn1` [Example 127] it is under 500 nM.
For the compound `CC(C)C(=O)Nc1cc(C(=O)NCCOc2ccc(C(F)(F)F)cc2F)ccn1` [Example 96], the IC50 was under 500 nM.
On to `Cc1cc(C(F)(F)F)ccc1OCCNC(=O)c1ccnc(NC(=O)C2CC2)n1` [Example 146], for which the IC50 was under 500 nM.
Take `CCC(=O)Nc1cc(C(=O)NCCCc2ncc(C(F)(F)F)cc2Cl)ccn1` [Example 30]: the IC50 is under 500 nM.
Same read-out and setting: next, `CCC(=O)Nc1cc(C(=O)NC[C@@H](C)Oc2ncc(C(F)(F)F)cc2Cl)cc(C)n1` [Example 74]: under 500 nM; `Cc1cc(C(=O)NCCOc2ccc(C(F)(F)F)cc2F)cc(NC(=O)C2CC2)n1` [Example 97]: under 500 nM; `Cc1cc(C(=O)NCCOc2ncc(C(F)(F)F)cc2Cl)nc(NC(=O)C2CC2)n1` [Example 16]: under 500 nM.
Same read-out and setting: next, `O=C(NCCOc1ccc(OC(F)(F)F)c(F)c1)c1ccnc(NC(=O)C2CC2)n1` [Example 150]: under 500 nM; `CC(=O)Nc1cc(C(=O)NCCOc2ccc(C(F)(F)F)cc2Cl)cc(C)n1` [Example 23]: under 500 nM; `CCC(=O)Nc1cc(C(=O)NCCOc2ccc(C(F)(F)F)cc2C)cc(C)n1` [Example 141]: under 500 nM.
Same read-out and setting: next, `CCC(=O)Nc1cc(C(=O)N[C@H](C)COc2ncc(C(F)(F)F)cc2Cl)cc(C)n1` [Example 66]: under 500 nM.
Consider `CC(=O)Nc1cc(C(=O)NCCOc2ccc(C(F)(F)F)cc2C)cc(C)n1` [Example 140], for which the IC50 was under 500 nM.
The same measure, in the same setting: the figure for `O=C(NCCOc1ncc(C(F)(F)F)cc1Cl)c1ccnc(NC(=O)C2CC2)c1` [Example 14] is under 500 nM; for `Cc1cc(C(=O)NCCOc2ccc(C(F)(F)F)cc2F)cc(NC(=O)C(C)C)n1` [Example 98] it is under 500 nM; for `CC(=O)Nc1cc(C(=O)NCCCc2ncc(C(F)(F)F)cc2Cl)cc(C)n1` [Example 28] it is under 500 nM.

The assay is the same for the next values; noted with them: Table 1; read-out: Nav1.7 activity (IC50).
For the compound `Cc1cc(C(=O)NCCOc2ncc(C(F)(F)F)cc2Cl)cc(NC(=O)C(C)C)n1` [Example 35], the IC50 is 190 nM.
Same read-out and setting: next, `CC(C)C(=O)Nc1cc(C(=O)NCCOc2ncc(C(F)(F)F)cc2Cl)ccn1` [Example 13]: 370 nM.
